Results from PubChem BioAssay (NCI).
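Interpolation was linear, between the two tested concentrations surrounding the appropriate level; five concentrations were tested over 48 hours in 96-well plates. The concentration for full growth arrest is given as TGI.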

What was measured:
Assay in all cases: NCI-60 cell line screen, 48 h
HCC-2998 colon = tested on: HCC-2998 colon
LOX IMVI melanoma = tested on: LOX IMVI melanoma
SR leukemia = tested on: SR leukemia
MALME-3M melanoma = tested on: MALME-3M melanoma
MDA-N = tested on: MDA-N
NCI-H522 lung = tested on: NCI-H522 lung
UACC-62 melanoma = tested on: UACC-62 melanoma
HT29 colon = tested on: HT29 colon
SN12C renal = tested on: SN12C renal
NCI-H23 lung = tested on: NCI-H23 lung
COLO 205 colon = tested on: COLO 205 colon
HCT-15 colon = tested on: HCT-15 colon
SF-539 CNS = tested on: SF-539 CNS
SK-MEL-28 melanoma = tested on: SK-MEL-28 melanoma
EKVX NSCLC = tested on: EKVX NSCLC
SW-620 colon = tested on: SW-620 colon
SK-MEL-2 melanoma = tested on: SK-MEL-2 melanoma
OVCAR-5 ovarian = tested on: OVCAR-5 ovarian
OVCAR-4 ovarian = tested on: OVCAR-4 ovarian

SMILES | TGI (HCC-2998 colon) [µM] | TGI (LOX IMVI melanoma) [µM] | TGI (SR leukemia) [µM] | TGI (MALME-3M melanoma) [µM] | TGI (MDA-N) [µM] | TGI (NCI-H522 lung) [µM] | TGI (UACC-62 melanoma) [µM] | TGI (HT29 colon) [µM] | TGI (SN12C renal) [µM] | TGI (NCI-H23 lung) [µM] | TGI (COLO 205 colon) [µM] | TGI (HCT-15 colon) [µM] | TGI (SF-539 CNS) [µM] | TGI (SK-MEL-28 melanoma) [µM] | TGI (EKVX NSCLC) [µM] | TGI (SW-620 colon) [µM] | TGI (SK-MEL-2 melanoma) [µM] | TGI (OVCAR-5 ovarian) [µM] | TGI (OVCAR-4 ovarian) [µM]
C=CCOCn1cc(F)c(=O)[nH]c1=O | > 100 | > 100 | > 100 | > 100 | > 100 | > 100 | > 100 | > 100 | > 100 | > 100 | > 100 | > 100 | > 100 | > 100 | > 100 | > 100 | – | – | –
COc1ccccc1/C=C1\S/C(=N/Nc2nc(C)c(C(C)=O)s2)NC1=O | > 100 | > 100 | > 100 | – | 88.1 | – | > 100 | > 100 | > 100 | > 100 | 46.2 | – | > 100 | > 100 | – | > 100 | > 100 | > 100 | > 100
O=C(O)CCCNc1ncc2c(n1)-c1ccccc1OC2 | – | > 100 | > 100 | > 100 | > 100 | > 100 | > 100 | > 100 | > 100 | > 100 | > 100 | > 100 | > 100 | > 100 | > 100 | > 100 | > 100 | > 100 | > 100
COC(=O)Cc1c([C@H]2[C@H](CC(=O)OC)c3ccccc3N2S(=O)(=O)c2ccc(C)cc2)[nH]c2ccccc12 | > 100 | > 100 | > 84.9 | > 100 | > 100 | > 100 | > 100 | > 100 | > 100 | > 100 | > 100 | > 100 | > 100 | > 100 | > 100 | > 100 | > 100 | > 100 | > 100
COC1=C2CC(C)CC(OC)C(OC(=O)CN)[C@H](C)/C=C(\C)C(OC(N)=O)C(OC)/C=C\C=C(/C)C(=O)NC(=CC1=O)C2=O (stereo partly specified) | 7.81 | 0.828 | 1.98 | 1.59 | 3.34 | 1.15 | 1.78 | 11.2 | 4.91 | 1.77 | 0.559 | 12.6 | 12.7 | 1.75 | 13.1 | 1.25 | 14.7 | 13.8 | 8.38
COC(=O)c1cc(O)c(O)c(O)c1-c1c(O)c(O)c(O)c(SC[C@H](NC(=O)OCc2ccccc2)C(=O)OCc2ccccc2)c1C(=O)OC | > 100 | 49.4 | – | > 100 | 47.5 | 59.3 | 64.8 | 86.5 | 41.8 | 50.3 | 48.4 | > 100 | 73 | > 100 | 50.8 | 62.8 | 52.9 | > 100 | 89.9
CS(=O)(=O)OCCCSCCSCCCOS(C)(=O)=O | > 100 | > 100 | > 100 | – | > 100 | > 100 | > 100 | > 100 | > 100 | > 100 | > 100 | > 100 | > 100 | > 100 | > 100 | > 100 | – | > 100 | > 100
CO[C@]12S[C@@H]3CCCC[C@@]31C(C)(C)C(=O)N2c1ccccc1 | > 100 | > 100 | > 100 | > 100 | > 100 | > 100 | > 100 | > 100 | 56.7 | > 100 | 44 | > 100 | 28.6 | > 100 | > 100 | > 100 | 95.5 | > 100 | –
O=C1CCC2c3ccccc3NCN12 (stereo unspecified) | > 100 | > 100 | – | > 100 | > 100 | > 100 | > 100 | > 100 | > 100 | > 100 | > 100 | > 100 | > 100 | > 100 | > 100 | > 100 | > 100 | > 100 | > 100
Nc1cc2ncnn2c(SCC(=O)N/N=C/C(Br)=C\c2ccccc2)n1 | 40.6 | 45.6 | > 100 | 28.3 | 31.6 | 22.9 | – | 28 | 48.4 | 33.1 | 41.1 | 37.1 | 39.2 | 37.6 | > 100 | 30.5 | – | 55.2 | –
CCOC(=O)NN(C(=O)OCC)C(=C(C1=CCCCC1)N1CCOCC1)N(NC(=O)OCC)C(=O)OCC | > 100 | > 100 | > 100 | > 100 | > 100 | – | > 100 | > 100 | > 100 | > 100 | > 100 | > 100 | – | > 100 | > 100 | > 100 | – | > 100 | –
CCNC1=C(NC(=O)c2ccccc2)C(=O)c2ccccc2C1=O | > 100 | – | > 100 | 43 | 24.1 | 79.2 | > 100 | 82.5 | > 100 | > 100 | > 100 | > 100 | > 100 | > 100 | – | > 100 | – | > 100 | > 100
CC(=O)Oc1c2ccsc2c(OC(C)=O)c2ccsc12 | 3.45 | 0.357 | 0.88 | 0.889 | 0.25 | 1.15 | 3.3 | 4.45 | 2.03 | 1.05 | 3.38 | 1.74 | 0.913 | 1.24 | 3.63 | – | 1.98 | – | 1.73
Nc1ncc(C=O)c(NCC2(CO)CCC2)n1 | > 100 | > 100 | > 100 | > 100 | > 100 | > 100 | 81.2 | > 100 | > 100 | > 100 | > 100 | > 100 | > 100 | – | – | > 100 | > 100 | > 100 | > 100
COC(=O)c1c(O)ccc2c1c1c(n2Cc2ccccc2OC)C(=O)c2ccccc2C1=O | 15.7 | 26.3 | 3.18 | 40.5 | 37.9 | 26.8 | – | 21.3 | 25.4 | 34.8 | 3.31 | 20 | 47.1 | 36.1 | 45 | 29.8 | 32.5 | 40.1 | 26.9
COC(=O)c1ccc(C)cc1CC1Cc2cccc(C)c2C1=O (stereo unspecified) | 29.3 | 9.79 | – | 31.3 | 3.86 | 6.57 | 49.6 | 6.06 | 78.2 | > 100 | 30.7 | 12.5 | 17.6 | 55.7 | 13.9 | > 100 | 17.1 | > 100 | 95.8
COC(=O)c1c(C)c2c(c(C)c1C(=O)OC)-c1c(C)ccc3ccc(C)c-2c13 | – | > 86.5 | 46.9 | > 100 | > 100 | > 100 | > 100 | 29.6 | > 100 | – | > 100 | > 55.6 | > 100 | > 100 | > 100 | > 94.5 | > 100 | > 100 | > 100
COc1ccc(N=Nc2ccc3oc(=O)c(C(=O)Nc4ccccc4C)cc3c2)cc1 | > 10 | > 10 | > 10 | > 10 | > 10 | > 10 | – | > 10 | > 10 | > 10 | > 10 | > 10 | > 10 | > 10 | > 10 | > 10 | > 10 | > 10 | > 10
CN(/N=C/c1ccccn1)C1=NCCCN1 | > 100 | > 100 | > 100 | > 100 | > 100 | > 100 | > 100 | > 100 | – | > 100 | > 100 | > 100 | > 100 | > 100 | > 100 | > 100 | > 100 | > 100 | > 100
O=c1[nH][nH]c(=O)n1/N=C/c1ccccc1 | – | > 100 | > 100 | – | > 100 | – | > 100 | > 100 | > 100 | > 100 | > 100 | > 100 | > 100 | > 100 | > 100 | > 100 | > 100 | > 100 | –
COc1ccc(CCNC(=O)c2ccccc2C2c3ccc(OCc4ccccc4)cc3Oc3cc(OCc4ccccc4)ccc32)cc1OC | > 100 | > 100 | > 100 | > 100 | > 100 | > 100 | > 100 | > 100 | > 100 | > 100 | > 100 | > 100 | – | > 100 | > 100 | > 100 | > 100 | > 100 | > 100
CCOC(=O)c1c(N2CCCC2)[nH]c(=O)c(C(c2ccc(Cl)c([N+](=O)[O-])c2)c2c(O)c(C(=O)OCC)c(N3CCCC3)[nH]c2=O)c1O | > 100 | 49.4 | > 100 | 84.6 | 79.6 | 74.1 | 86 | – | > 100 | 48.9 | > 100 | > 100 | 41.6 | > 100 | > 100 | > 100 | – | > 100 | > 100
c1ccc(-c2c(-c3cccs3)[nH]c(-c3cccs3)c2-c2ccccn2)nc1 | 44.3 | 37.1 | 81.1 | 77.1 | > 100 | – | 35.6 | 30.3 | 67.9 | > 100 | 30.6 | 40.4 | 40.6 | – | 65.4 | 68.8 | – | 66.6 | –
Cc1cn(Cc2cccc(C3=NCCCN3)c2)c(=O)n(Cc2cccc(C3=NCCCN3)c2)c1=O | > 100 | > 100 | > 100 | > 100 | > 100 | > 100 | > 100 | – | > 100 | > 100 | > 100 | > 100 | – | > 100 | > 100 | > 100 | > 100 | > 100 | > 100
O=C1c2ccccc2C(=O)c2c(NC(=O)C3CC3)ccc(NC(=O)C3CC3)c21 | > 100 | > 100 | > 100 | > 100 | > 100 | > 100 | > 100 | > 100 | > 100 | > 100 | > 100 | > 100 | > 100 | > 100 | > 100 | > 100 | > 100 | > 100 | –
CCC/C(Cl)=N/OC(NC(=O)OCC)(C(F)(F)F)C(F)(F)F | – | 35.4 | 57.6 | 29.6 | 35.9 | > 100 | > 100 | 47.2 | 32.6 | 61.4 | 36.9 | 40.6 | 30.3 | 59.2 | 45 | 37.5 | > 100 | 33.2 | 31.7
